Data published in patent US12637437B2, “Herbicidal compounds” (SYNGENTA CROP PROTECTION AG, priority 2021, dated 2026).

What was measured:
Format in all cases: in vivo
[1] = tested on: Amaranthus retoflexus (AMARE); assay: Post-emergence herbicidal glasshouse test, AMARE; set-up: dose or concentration left out as unconfirmed; conditions: evaluated after 13 days, five-point scale
How it was run: (§1)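 Pots of standard soil were sown and sprayed 1 day after sowing (pre-emergence) or after 8 days' growth (post-emergence). Spray was acetone/water (50:50) with 0.5% Tween 20, applied at 125 g/h unless otherwise indicated. Glasshouse at 24/16 °C day/night, 14 h light, 65% humidity. Damage was scored after 13 days on a five-point scale (5=80-100%, 1=0-19%).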

[2] = tested on: Abutilon theophrasti (ABUTH); assay: Post-emergence herbicidal glasshouse test, ABUTH; conditions: 125 g/h, evaluated after 13 days, five-point scale
Procedure: (§2) Seeds of a variety of test species are sown in standard soil in pots (Lolium perenne (LOLPE), Amaranthus retoflexus (AMARE), Abutilon theophrasti (ABUTH), Setaria faberi (SETFA), Echinochloa crus-galli (ECHCG), Ipomoea hederacea (IPOHE)). After cultivation for one day (pre-emergence) or after 8 days cultivation (post-emergence) under controlled conditions in a glasshouse (at 24/16° C., day/night; 14 hours light; 65% humidity), the plants are sprayed with an aqueous spray solution derived from the formulation of the technical active ingredient in acetone/water (50:50) solution containing 0.5% Tween 20 (polyoxyethelyene sorbitan monolaurate, CAS RN 9005-64-5). Compounds are applied at 125 g/h unless otherwise indicated. The test plants are then grown in a glasshouse under controlled conditions in a glasshouse (at 24/16° C., day/night; 14 hours light; 65% humidity) and watered twice daily. After 13 days for pre and post-emergence, the test is evaluated for the percentage damage caused to the plant. The biological activities are shown in the following table on a five-point scale (5=80-100%; 4=60-79%; 3=40-59%; 2=20-39%; 1=0-19%). “—” denotes not tested on this species or data not captured.

Setaria faberi (SETFA) [3] = assay: Post-emergence herbicidal glasshouse test, SETFA; conditions: 125 g/h, evaluated after 13 days, five-point scale
How it was run: as §1

[4] = tested on: Echinochloa crus-galli (ECHCG); assay: Post-emergence herbicidal glasshouse test, ECHCG; conditions: 125 g/h, evaluated after 13 days, five-point scale
How it was run: as §1

[5] = tested on: Ipomoea hederacea (IPOHE); assay: Post-emergence herbicidal glasshouse test, IPOHE; conditions: 125 g/h, evaluated after 13 days, five-point scale
How it was run: as §1

[6] = tested on: Amaranthus retoflexus (AMARE); assay: Pre-emergence herbicidal glasshouse test, AMARE; conditions: 125 g/h, evaluated after 13 days, five-point scale
How it was run: as §1

[7] = tested on: Abutilon theophrasti (ABUTH); assay: Pre-emergence herbicidal glasshouse test, ABUTH; conditions: 125 g/h, evaluated after 13 days, five-point scale
Procedure: as §2

Setaria faberi (SETFA) [8] = assay: Pre-emergence herbicidal glasshouse test, SETFA; conditions: 125 g/h, evaluated after 13 days, five-point scale
How it was run: as §1

[9] = tested on: Echinochloa crus-galli (ECHCG); assay: Pre-emergence herbicidal glasshouse test, ECHCG; conditions: 125 g/h, evaluated after 13 days, five-point scale
How it was run: as §1

[10] = tested on: Ipomoea hederacea (IPOHE); assay: Pre-emergence herbicidal glasshouse test, IPOHE; conditions: 125 g/h, evaluated after 13 days, five-point scale
How it was run: as §1

| Structure (SMILES) | percentage damage caused to the plant, POST Application AMARE [1] | percentage damage caused to the plant, POST Application ABUTH [2] | percentage damage caused to the plant, POST Application SETFA (Setaria faberi (SETFA) [3]) | percentage damage caused to the plant, POST Application ECHCG [4] | percentage damage caused to the plant, POST Application IPOHE [5] | percentage damage caused to the plant, PRE Application AMARE [6] | percentage damage caused to the plant, PRE Application ABUTH [7] | percentage damage caused to the plant, PRE Application SETFA (Setaria faberi (SETFA) [8]) | percentage damage caused to the plant, PRE Application ECHCG [9] | percentage damage caused to the plant, PRE Application IPOHE [10] |
| --- | --- | --- | --- | --- | --- | --- | --- | --- | --- | --- |
| COC(=O)Nc1c(OC(F)(F)F)ccc(C(=O)Nc2nnnn2C)c1Cl [Compound 1.001] | 5 (5=80-100%) | 5 (5=80-100%) | 5 (5=80-100%) | 5 (5=80-100%) | 5 (5=80-100%) | 5 (5=80-100%) | 5 (5=80-100%) | 5 (5=80-100%) | 5 (5=80-100%) | 3 (3=40-59%) |
| CCOC(=O)Nc1c(OC(F)(F)F)ccc(C(=O)Nc2nnnn2C)c1Cl [Compound 1.002, ethyl N-[2-chloro-3-[(1-methyltetrazol-5-yl)carbamoyl]-6-(trifluoromethoxy)phenyl]carbamate] | 4 (4=60-79%) | 4 (4=60-79%) | 4 (4=60-79%) | 4 (4=60-79%) | 4 (4=60-79%) | 5 (5=80-100%) | 5 (5=80-100%) | 4 (4=60-79%) | 5 (5=80-100%) | 5 (5=80-100%) |
| COCCOC(=O)Nc1c(OC(F)(F)F)ccc(C(=O)Nc2nnnn2C)c1Cl [Compound 1.006] | 5 (5=80-100%) | 5 (5=80-100%) | 4 (4=60-79%) | 4 (4=60-79%) | 4 (4=60-79%) | 4 (4=60-79%) | 5 (5=80-100%) | 4 (4=60-79%) | 5 (5=80-100%) | 4 (4=60-79%) |
